From patent US20050090522A1 (priority 2001, published 2005)

test system: HIV-1; assay: HIV-1 single-round infectious luciferase reporter virus (pseudotype) assay in HeLa CD4 CCR5 cells; format: cell-based; settings: Human immunodeficiency virus 1, HeLa-CD4/CCR5, 72 h, read-out: EC50 Group from Table 1, HeLa CD4 CCR5 cells, luciferase reporter virus, harvested 72 h after infection
Experimental: • Virus production—Human embryonic Kidney cell line, 293, propagated in Dulbecco's Modified Eagle Medium (Life Technologies, Gaithersburg, Md.) containing 10% fetal Bovine serum (FBS, Sigma, St. Louis, Mo.). • Virus infection—Human epithelial cell line, HeLa, expressing the HIV-1 receptors CD4 and CCR^5 was propagated in Dulbecco's Modified Eagle Medium (Life Technologies, Gaithersburg, Md.) containing 10% fetal Bovine serum (FBS, Sigma, St. Louis, Mo.) and supplemented with 0.2 mg/mL Geneticin (Life Technologies, Gaithersburg, Md.) and 0.4 mg/mL Zeocin (Invitrogen, Carlsbad, Calif.). […] Transfections were performed using lipofectAMINE PLUS reagent as described by the manufacturer (Life Technologies, Gaithersburg, Md.). Experiment • 1. Compound was added to HeLa CD4 CCR5 cells plated in 96 well plates at a cell density of 5×10^4 cells per well in 100 μl Dulbecco's Modified Eagle Medium containing 10% fetal Bovine serum at a concentration of […]. • 2. 100 μl of single-round infectious reporter virus in Dulbecco's Modified Eagle Medium was then added to the plated cells and compound at an approximate multiplicity of infection (MOI) of 0.01, resulting in a final volume of 200 μl per well and a final compound concentration of <10 μM. • 3. Samples were harvested 72 h after infection. • 4. Viral infection was monitored by measuring luciferase expression from viral DNA in the infected cells using a luciferase reporter gene assay kit (Roche Molecular Biochemicals, Indianapolis, Ind.). Infected cell supernatants were removed and 50 μl of Dulbecco's Modified Eagle Medium (without phenol red) and 50 μl of luciferase assay reagent reconstituted as described by the manufacturer (Roche Molecular Biochemicals, Indianapolis, Ind.) was added per well. Luciferase activity was then quantified by measuring luminescence using a Wallac microbeta scintillation counter. • 5. […] An EC50 provides a method for comparing the antiviral potency of the compounds of this invention. The effective concentration for fifty percent inhibition (EC50) was calculated with the Microsoft Excel Xlfit curve fitting software. For each compound, curves were generated from percent inhibition calculated at 10 different concentrations by using a four paramenter logistic model (model 205). Table 1 is the key for the data in Tables 2-4. Cytoxicity assays were conducted with the same HeLa using methodology well known in the art.
In Table 5, X2, X4 etc. indicates the point of attachment. […] The data at 10 μM was calculated in the following manner:
For compounds tested at concentrations less than 10 μM, the percent inhibition at 10 μM was determined by extrapolation using the XLfit curve fitting feature of the Microsoft Excel spreadsheet software. Curves were obtained from 10 data points (% inhibition determined at 10 concentrations of compound) by using a four parameter logistic model (XLfit model 205: y=A+((B−A)/(I+((C/x)^D))), where, A=minimum y, B=maximum y, C=logEC50, D=slope factor, and x and y are known data values. Extrapolations were performed with the A and B parameters unlocked. […]

Structure (SMILES)	EC50 [µM]
C[C@@H]1CN(C(=O)c2ccccc2)CCN1C(=O)C(=O)c1c[nH]c2nc(-c3nnn[nH]3)ccc12 [Example 56]	1 to 5

same assay, conditions: Human immunodeficiency virus 1, HeLa-CD4/CCR5, read-out: EC50 Group from TABLE 1, HeLa CD4 CCR5 cells, single-round infectious luciferase reporter virus

Structure (SMILES)	EC50 [µM]
COc1cnc(-c2ccccn2)c2[nH]cc(C(=O)C(=O)N3CCN(C(=O)c4ccccc4)CC3)c12 [Example 36, 1-benzoyl-4-[(4-methoxy-7-(pyridin-2-yl)-6-azaindol-3-yl)-oxoacetyl]piperazine]	< 1
C[C@@H]1CN(C(=O)c2ccccc2)CCN1C(=O)C(=O)c1c[nH]c2c(-c3cncnc3)ncc(F)c12 [Example 41, 1-benzoyl-3-(R)-methyl-4-[(4-fluoro-7-(pyrimidin-5-yl)-6-azaindol-3-yl)-oxoacetyl]piperazine]	< 1
CCOc1ncc(-c2ncc(OC)c3c(C(=O)C(=O)N4CCN(C(=O)c5ccccc5)CC4)c[nH]c23)s1 [Example 45, 1-benzoyl-4-[(4-methoxy-7-(2-ethoxy-thiazol-5-yl)-6-azaindol-3-yl)-oxoacetyl]piperazine]	< 1
COc1cnc(-c2cncc(N)n2)c2[nH]cc(C(=O)C(=O)N3CCN(C(=O)c4ccccc4)CC3)c12 [Example 46, 1-benzoyl-4-[(4-methoxy-7-(2-amino-pyrazin-6-yl)-6-azaindol-3-yl)-oxoacetyl]piperazine]	< 1
COc1cnc(-c2cnc(NS(C)(=O)=O)cn2)c2[nH]cc(C(=O)C(=O)N3CCN(C(=O)c4ccccc4)CC3)c12 [Example 47]	< 1
COc1cnc(-c2ncccn2)c2[nH]cc(C(=O)C(=O)N3CCN(C(=O)c4ccccc4)CC3)c12 [Example 49, 1-benzoyl-4-[(4-methoxy-7-(pdin-2-yl)-6-azaindol-3-yl)-oxoacetyl]piperazine]	< 1
COc1cnc(-c2nccs2)c2[nH]cc(C(=O)C(=O)N3CCN(C(=O)c4ccccn4)CC3)c12 [Example 50]	< 1
COc1cnc(-c2cnc(C(N)=O)cn2)c2[nH]cc(C(=O)C(=O)N3CCN(C(=O)c4ccccc4)CC3)c12 [Example 55, 1-benzoyl-4-[(4-methoxy-7-(2-aminocarbonyl-pyrazin-5-yl)-6-azaindol-3-yl)-oxoacetyl]piperazine]	< 1
COc1cc(-c2ncc(OC)c3c(C(=O)C(=O)N4CCN(C(=O)c5ccccc5)CC4)c[nH]c23)nc(OC)n1 [Example 68, 1-benzoyl-4-[(4-methoxy-7-(2,6-dimethoxy-pyrimidin-4-yl)-6-azaindol-3-yl)-oxoacetyl]piperazine]	< 1
COc1ccc(-c2ncc(OC)c3c(C(=O)C(=O)N4CCN(C(=O)c5ccccc5)CC4)c[nH]c23)cn1 [Example 69, 1-benzoyl-4-[(4-methoxy-7-(6-methoxy-pyridin-3-yl)-6-azaindol-3-yl)-oxoacetyl]piperazine]	< 1
CCN(CC)c1nc(-c2ncc(OC)c3c(C(=O)C(=O)N4CCN(C(=O)c5ccccc5)CC4)c[nH]c23)cs1 [Example 70, 1-benzoyl-4-[(4-methoxy-7-(2-diethylamino-thiazol-4-yl)-6-azaindol-3-yl)-oxoacetyl]piperazine]	< 1
COc1cnc(-c2cnc(N(C)C)cn2)c2[nH]cc(C(=O)C(=O)N3CCN(C(=O)c4ccccc4)CC3)c12 [Example 72, 1-(benzoyl)-4-[(4-methoxy-7-(2-dimethylamino-pyrazin-5-yl)-6-azaindol-3-yl)-oxoacetyl]piperazine]	< 1
COc1cnc(-c2cccc(N)n2)c2[nH]cc(C(=O)C(=O)N3CCN(C(=O)c4ccccc4)CC3)c12 [Example 75, 1-benzoyl-4-[(4-methoxy-7-(2-aminopyridin-6-yl)-6-azaindol-3-yl)-oxoacetyl]piperazine]	< 1
COc1cnc(-c2cccc(C)n2)c2[nH]cc(C(=O)C(=O)N3CCN(C(=O)c4ccccc4)CC3)c12 [Example 76, 1-benzoyl-4-[(4-methoxy-7-(2-methyl-pyridin-6-yl)-6-azaindol-3-yl)-oxoacetyl]piperazine]	< 1
COc1cccc(-c2ncc(OC)c3c(C(=O)C(=O)N4CCN(C(=O)c5ccccc5)CC4)c[nH]c23)n1 [Example 77, 1-benzoyl-4-[(4-methoxy-7-(2-methoxy-pyridin-6-yl)-6-azaindol-3-yl)-oxoacetyl]piperazine]	< 1

same assay, conditions: Human immunodeficiency virus 1, HeLa-CD4/CCR5, read-out: EC50 Group from Table 1, Table 4; HeLa CD4 CCR5 cells, single-round luciferase reporter virus

Structure (SMILES)	EC50 [µM]
C[C@@H]1CN(C(=O)c2ccccc2)CCN1C(=O)C(=O)c1c[nH]c2c(-c3cncnc3)ccnc12 [Example 51, 1-benzoyl-3-(R)-methyl-4-[(7-(pyrimidin-5-yl)-4-azaindol-3-yl)-oxoacetyl]piperazine]	< 1
C[C@@H]1CN(C(=O)c2ccccc2)CCN1C(=O)C(=O)c1c[nH]c2c(-c3cnccn3)ccnc12 [Example 52, 1-benzoyl-3-(R)-methyl-4-[(7-(pyrazin-2-yl)-4-azaindol-3-yl)-oxoacetyl]piperazine]	< 1
C[C@@H]1CN(C(=O)c2ccccc2)CCN1C(=O)C(=O)c1c[nH]c2c(-c3nccs3)ccnc12 [Example 53, 1-benzoyl-3-(R)-methyl-4-[(7-(thiazol-2-yl)-4-azaindol-3-yl)-oxoacetyl]piperazine]	< 1
CCOc1ncc(-c2ccnc3c(C(=O)C(=O)N4CCN(C(=O)c5ccccc5)C[C@H]4C)c[nH]c23)s1 [Example 54, 1-benzoyl-3-(R)-methyl-4-[(7-(2-ethoxy-thiazol-5-yl)-4-azaindol-3-yl)-oxoacetyl]piperazine]	< 1
CON(C)C(=O)c1ccnc2c(C(=O)C(=O)N3CCN(C(=O)c4ccccc4)C[C@H]3C)c[nH]c12 [Example 57]	< 1
CON(C)C(=O)c1cc(Cl)nc2c(C(=O)C(=O)N3CCN(C(=O)c4ccccc4)C[C@H]3C)c[nH]c12 [Example 58, 1-benzoyl-3-(R)-methyl-4-[(5-chloro-(7-(methoxymethylamino)carbonyl)-4-azaindol-3-yl)-oxoacetyl]piperazine]	< 1
C[C@@H]1CN(C(=O)c2ccccc2)CCN1C(=O)C(=O)c1c[nH]c2c(-c3ncc[nH]3)cc(Cl)nc12 [Example 60, 1-benzoyl-3-(R)-methyl-4-[(5-chloro-7-(imidazol-2-yl)-4-azaindol-3-yl)-oxoacetyl]piperazine]	< 1
Cc1c[nH]c(-c2cc(Cl)nc3c(C(=O)C(=O)N4CCN(C(=O)c5ccccc5)C[C@H]4C)c[nH]c23)n1 [Example 61, l-benzoyl-3-(R)-methyl-4-[(5-chloro-7-(4-methyl-imidazol-2-yl)-4-azaindol-3-yl)-oxoacetyl]piperazine]	< 1
Cc1nc(-c2cc(Cl)nc3c(C(=O)C(=O)N4CCN(C(=O)c5ccccc5)C[C@H]4C)c[nH]c23)[nH]c1C [Example 62, 1-benzoyl-3-(R)-methyl-4-[(5-chloro-7-(4,5-dimethyl-imidazol-2-yl)-4-azaindol-3-yl)-oxoacetyl]piperazine]	< 1
C[C@@H]1CN(C(=O)c2ccccc2)CCN1C(=O)C(=O)c1c[nH]c2c(-c3cnco3)cc(Cl)nc12 [Example 63, 1-benzoyl-3-(R)-methyl-4-[(5-chloro-7-(oxazol-5-yl)-4-azaindol-3-yl)-oxoacetyl]piperazine]	< 1
Cc1cc(-c2cc(Cl)nc3c(C(=O)C(=O)N4CCN(C(=O)c5ccccc5)C[C@H]4C)c[nH]c23)[nH]n1 [Example 64, 1-benzoyl-3-(R)-methyl-4-[(5-chloro-7-(3-methyl-pyrazol-5-yl)-4-azaindol-3-yl)-oxoacetyl]piperazine]	< 1
COc1ccc(-c2ccnc3c(C(=O)C(=O)N4CCN(C(=O)c5ccccc5)CC4)c[nH]c23)cc1 [Example 65, 1-(benzoyl)-4-[(7-(4-methoxy)-4-azaindol-3-yl)-oxoacetyl]piperazine]	< 1
COc1ccc(-c2ccnc3c(C(=O)C(=O)N4CCN(C(=O)c5ccccc5)C[C@@H]4C)c[nH]c23)cc1 [Example 66, 1-benzoyl-3-(S)-methyl-4-[(7-(4-methoxy)-4-azaindol-3-yl)-oxoacetyl]piperazine]	< 1
COc1ccc(-c2ccnc3c(C(=O)C(=O)N4CCN(C(=O)c5ccccc5)C[C@H]4C)c[nH]c23)cc1 [Example 67, 1-benzoyl-3-(R)-methyl-4-[(7-(4-methoxyphenyl)-4-azaindol-3-yl)oxoacetyl]piperazine]	< 1
